In US11970473B2, “Nootkatone derivatives and methods of using the same” (Arkansas State University—Jonesboro, priority 2021, dated 2024):
≈ marks a conversion by molar mass, not a printed value.

Columns and labels:
[1] = tested on: S. aureus ATCC 700699 and S. aureus ATCC 33591; test: Time-Kill Assay; type: cell-based; details: 4×MIC
Protocol: Time kill assay for test antibiotics against S. aureus ATCC 700699 and S. aureus ATCC 33591 strains was conducted using procedures published previously.^26 Briefly, a log-phase bacterial culture was diluted to ˜5×10^6 CFU/ml in warm sterile CAMHB broth and was exposed to antibiotics at 4×MIC concentration then incubated at 35° C. Samples of 20 μl were taken every 2 hours, diluted 10 fold to 10^−5, and the 6×6 drop plate method was performed to determine viable CFU/ml after 18-24 hours of incubation at 35° C. Each antibiotic time-kill assay was conducted in triplicate.

[2] = tested on: S. aureus ATCC 33591 (Sa91); test: Minimal inhibitory concentration (MIC) assay; type: cell-based; details: Staphylococcus aureus, ATCC33591; S. aureus ATCC 33591, antibiotic-resistant strain; read-out: Antimicrobial activity (MIC) Sa91
Protocol: (§1) Minimal inhibitory concentration (MIC) assay The standard microdilution method recommended by the Clinical and Laboratory Standards Institute (CLSI) was used to determine the MIC of the antibiotics. The starting concentration of compounds was 50 μg/ml and 2-fold dilution was done down the 96 honeycomb well plate column. The MIC assay was conducted in triplicates.

[3] = tested on: B. subtilis ATCC 6623 (Bs); test: Minimal inhibitory concentration (MIC) assay; type: cell-based; details: Bacillus subtilis, ATCC6623; B. subtilis ATCC 6623; read-out: Antimicrobial activity (MIC) Bs
Protocol: as §1

[4] = tested on: S. aureus ATCC 33592 (Sa92); test: Minimal inhibitory concentration (MIC) assay; type: cell-based; details: Staphylococcus aureus, ATCC33592; S. aureus ATCC 33592, antibiotic-resistant strain; read-out: Antimicrobial activity (MIC) Sa92
Protocol: as §1

[5] = tested on: Enterococcus faecium ATCC 700221 (Em21); test: Minimal inhibitory concentration (MIC) assay; type: cell-based; details: Enterococcus faecium, ATCC700221, Enterococcus faecium ATCC 700221; read-out: Antimicrobial activity (MIC) Em21
Protocol: as §1

[6] = tested on: S. aureus BAA-2312 (Sa12); test: Minimal inhibitory concentration (MIC) assay; type: cell-based; details: Staphylococcus aureus, BAA2312; S. aureus BAA-2312, antibiotic-resistant strain; read-out: Antimicrobial activity (MIC) Sa12
Protocol: as §1

[7] = tested on: S. aureus ATCC 25923 (Sa23); test: Minimal inhibitory concentration (MIC) assay; type: cell-based; details: Staphylococcus aureus, ATCC25923; S. aureus ATCC 25923, antibiotic susceptible strain; read-out: Antimicrobial activity (MIC) Sa23
Protocol: as §1

[8] = tested on: Enterococcus faecalis ATCC 29212 (Es12); test: Minimal inhibitory concentration (MIC) assay; type: cell-based; details: ATCC29212; Enterococcus faecalis ATCC 29212; read-out: Antimicrobial activity (MIC) Es12
Protocol: as §1

[9] = tested on: S. aureus ATCC 700699 (Sa99); test: Minimal inhibitory concentration (MIC) assay; type: cell-based; details: Staphylococcus aureus, ATCC700699; S. aureus ATCC 700699, antibiotic-resistant strain; read-out: Antimicrobial activity (MIC) Sa99
Protocol: as §1

[10] = tested on: treated bacteria (differentially expressed proteins); test: Quantitative proteomics: protein regulation by Compound 16 versus DMSO control
[11] = tested on: S. aureus strains; test: MIC, summary over S. aureus strains; type: cell-based; details: Staphylococcus aureus; lowest MIC over S. aureus strains; read-out: minimum inhibitory concentration (MIC) value as low as
Protocol: as §1

[12] = tested on: MRSA persisters; test: Persister Cell Killing Assay
Protocol: A persister cell killing assay was performed following the methodology described by Kim et. al. with some modifications.^28 S. aureus strain was grown to stationary phase in CAMHB medium by shaking at 200 rpm overnight at 35° C. An aliquot of stationary phase culture (1 ml) was washed thrice with 1×PBS by centrifugation. After washing, the cells were diluted to ˜5×10^8 CFU/ml (confirmed by plate count). Diluted persister cells (2 ml) plus antibiotics at the desired concentration were incubated in sterile 10×75 mm plastic culture tubes at 35° C. with shaking at 200 rpm. At specific times, 400 μl aliquots were placed into microcentrifuge tubes and the cells washed and serially diluted in PBS. The diluted sample was plated on TSA agar plate with 5% sheep blood by the 6×6 drop plate method. Plates were incubated for 18-20 hours at 35° C., and then colonies were counted to calculate concentrations in CFU/ml. The experiment was performed in triplicates.

With `C=C(C)[C@@H]1CC=C2c3sc(-c4ccc(O)c(O)c4)nc3C[C@@H](C)[C@]2(C)C1` [Compound 16] the eliminated bacteria at [1] was 6 h, the “time kill assay: mode of action” value [1] was “bactericidal” and the MIC [2] was 6.25 µg/mL (≈ 17 µM). For the same compound, the MIC [3] was 12.5 µg/mL (≈ 34 µM), the MIC [4] was 3.12 µg/mL (≈ 8.49 µM) and the MIC [5] was 1.56 µg/mL (≈ 4.24 µM). It also gave an MIC [6] of 3.12 µg/mL (≈ 8.49 µM), an MIC [7] of 3.12 µg/mL (≈ 8.49 µM) and an MIC [8] of 12.5 µg/mL (≈ 34 µM). For the same compound, the MIC [9] was 3.12 µg/mL (≈ 8.49 µM), the “Log(FC)” value ([10]; gene SAV0307 (A0A0H3JQ49): Similar to outer membrane protein, ⅛ MIC) was 1.313 and the “Log(FC)” value ([10]; gene SAV0486: Initiation-control protein YabA, ⅛ MIC) was −1.076. The “Log(FC)” value ([10]; gene SAV0831: Similar to thioredoxin, ⅛ MIC) was −1.298, the “Log(FC)” value ([10]; gene SAV1155 (A0A0H3JUX1): Fibrinogen-binding protein, ⅛ MIC) was 4.341 and the “Log(FC)” value ([10]; gene SAV1291: Thiamine_BP domain-containing protein, ⅛ MIC) was −1.399. The “Log(FC)” value ([10]; gene SAV1556: ABC transporter MreA, ⅛ MIC) was −1.267, the “Log(FC)” value ([10]; gene SAV1615: UPF0473 protein SAV1615, ⅛ MIC) was −1.3145 and the “Log(FC)” value ([10]; gene SAV1617: UPF0297 protein SAV1617, ⅛ MIC) was −2.321. For the same compound, the “Log(FC)” value ([10]; gene SAV1876: Uncharacterized protein, ⅛ MIC) was −3.169, the “Log(FC)” value ([10]; gene SAV1880: UPF0435 protein SAV1880, ⅛ MIC) was −1.529 and the “Log(FC)” value ([10]; gene SAV2592: 3-dmu-9_3-mt domain-containing protein, ⅛ MIC) was −1.105. For the same compound, the “Log(FC)” value ([10]; gene acpP: Acyl carrier protein, ⅛ MIC) was −1.463, the “Log(FC)” value ([10]; gene coa (A0A0H3JPA2): Staphylocoagulase, ⅛ MIC) was 4.524 and the “Log(FC)” value ([10]; gene esxA: Type VII secretion system extracellular protein A, ⅛ MIC) was −1.698. For the same compound, the “Log(FC)” value ([10]; gene ftnA: Bacterial non-heme ferritin, ⅛ MIC) was −1.122, the “Log(FC)” value ([10]; gene gate: Aspartyl/glutamyl-tRNA (Asn/Gln) amidotransferase subunit C, ⅛ MIC) was −2.722 and the “Log(FC)” value ([10]; gene hit: Hit-like protein involved in cell-cycle regulation, ⅛ MIC) was −1.253. The “Log(FC)” value ([10]; gene lip1 (P65288): Lipase 1, ⅛ MIC) was 1.631, the “Log(FC)” value ([10]; gene mecA (A0A0H3JPA5): Penicillin binding protein 2 prime, ⅛ MIC) was 1.378 and the “Log(FC)” value ([10]; gene moaD: Molybdopterin synthase sulfur carrier subunit, ⅛ MIC) was −1.617. For the same compound, the “Log(FC)” value ([10]; gene narG: Nitrate reductase (quinone), ⅛ MIC) was −1.5746, the “Log(FC)” value ([10]; gene nasD: Nitrite reductase, ⅛ MIC) was −1.201 and the “Log(FC)” value ([10]; gene rsbV: Anti-sigma-B factor antagonist, ⅛ MIC) was −1.199. For the same compound, the “Log(FC)” value ([10]; gene sbi (Q931F4): Immunoglobulin-binding protein Sbi, ⅛ MIC) was 1.71, the MIC [11] was 3.12 µg/mL (≈ 8.5 µM) and the “ability to kill MRSA persisters” value [12] was “inhibited the growth of persisters significantly”. For the same compound, the CFU count ([12]; after 4 hrs exposure, 128×MIC) was 2×10^7 CFU and the “potency against the persister compared with positive controls” value ([12]; versus vancomycin and gentamicin) was “several fold more potent than the positive controls”.
